Source: PubChem BioAssay AID179 (DTP/NCI, 2004)
Activity calls are given as the source filed them.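 The calls were made as follows: active = compounds giving half or more protection of infected cells from virus-caused growth loss, again on retest; inactive = the rest.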

Tested on: CEM cells HIV-1 protection, formazan growth assay
Experiment: NCI AIDS Antiviral Assay
Details: for IC50: measured here: growth of uninfected CEM cells
How it was run: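 Human CEM cells, uninfected and HIV-1-infected, exposed to five drug concentrations; growth measured by soluble formazan assay and scored as percent protection from infection, with protecting compounds retested.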

SMILES | EC50 [µM] | IC50 [µM] | outcome
O=C1C(F)=CC(COC(c2ccccc2)(c2ccccc2)c2ccccc2)OC1n1cc(F)c(=O)[nH]c1=O (centres undefined) | > 2 | 0.479 | 
COc1ccc2c(n1)Sc1nc3ccccc3nc1N2 | > 200 | 24.5 | 
O=C(c1ccc(Cl)cc1)N(C(=O)N1CCC(c2ccccc2)CC1)c1ccccc1 | > 200 | 11.2 | 
CC1(C)OC(=O)NC1=O |  |  | inactive
FC(F)(F)c1nc(Cl)c2ncsc2n1 | > 200 | 2.4 | 
COC(=O)/C=C(\C=C/C(=O)O)C(=O)O | > 1260 | 251 | 
CCOP(=O)(OCC)C(C(=O)OC)C(=O)C(=O)Nc1cccc(O)c1 (centres undefined) | > 676 | > 676 | 
CCn1c(=O)c2c3ccc(O)cc3[nH]c2c2ccc(O)cc21 | > 200 | 38.9 | 
O=C(/C=C/c1ccccc1)c1ccc(Cl)s1 | > 200 | 12.3 | 
Cn1c(-c2cccc([N+](=O)[O-])c2)[n+](C)c2ccccc21 | > 200 | 18.6 | 
COc1ccc(/C=c2\c(=O)[nH]c3nc4ccccc4c(=O)n23)cc1 | > 200 | 34.7 | 
CP(=O)(O)C(N)c1ccccc1 (centres undefined) | > 200 | > 200 | 
N[C@H]1CCc2c1nc1c(c2-c2ccccc2)CC[C@@H]1N | > 200 | 83.2 | 
COC(=O)c1cccc2cccc(C(=O)Nc3ccc(Cl)cc3)c12 | > 11.2 | > 11.2 | 
COc1cc(OC)nc(-n2c(N)c(C(=O)O)c3ccc([N+](=O)[O-])cc3c2=O)n1 | > 200 | 42.7 | 
CCOC(=O)[C@@]1(C)CC(O)C(=O)N1C (some centres undefined) |  |  | inactive
Cn1ccnc1C(c1nccn1C)C(C)(C)[N+](=O)[O-] | > 339 | > 339 | 
O=C(c1nc2ccccc2[nH]c1=O)C(O)c1ccco1 (centres undefined) | > 794 | 380 | 
CCCCOP(=O)(OCCCC)c1ccccc1 | 0.0631 | > 200 | 
CCCCCCCCCCCCCCCCOP(=O)(O)OCCC=C(c1cc(Cl)c(O)c(C(=O)O)c1)c1cc(Cl)c(O)c(C(=O)O)c1 | > 145 | 93.3 | 
COc1cc2c(cc1OC)C(Cc1cc(Br)c(OC)c(OC)c1)=[N+](C)CC2 | > 447 | 33.9 | 
c1ccc2c3c([nH]c2c1)C1CCCN1CC3 (centres undefined) | > 617 | 174 | 

SMILES | EC50 [µM] | IC50 [µM] | outcome
COc1ccc(C(=O)/C=C/c2ccc(OCCCCCCCCCCOc3ccc(/C=C/C(=O)c4ccc(OC)c(OC)c4)cc3)cc2)c(OC)c1 |  |  | inactive
c1ccc2c(c1)nc(NC1CCCC1)c1[nH]c(C3CCCC3)nc12 | > 200 | 25.1 | 
O=C(NNc1nc2cc(F)ccc2n2cccc12)c1cnccn1 | > 200 | 3.47 | 
Cc1cc2ccccc2n1S(=O)(=O)c1ccccc1 | > 95.5 | > 95.5 | 
CCCCNc1cc(Nc2ccc(Br)cc2)nc(N)n1 | > 2 | 1.07 | 
CCCCCCCCC1=C(OC)C(=O)c2ccc(C)nc2C1=O |  |  | inactive
CCOC(=O)c1cc2c([nH]1)c(O)cc1c2ccn1Cc1ccccc1 | > 200 | 29.5 | 
C=CS(=O)(=O)c1c2cc(OC)ccc2nc2ccc(OC)cc12 | > 20 | 2.88 | 
CC(C)CCC[C@@H](C)[C@H]1CC[C@H]2[C@@H]3CC[C@H]4C[C@@H](CCC=C(c5cc(Cl)c(OCc6ccc(C(=O)O)cc6)c(C(=O)O)c5)c5cc(Cl)c(OCc6ccc(C(=O)O)cc6)c(C(=O)O)c5)CC[C@]4(C)[C@H]3CC[C@]12C | 2.51 | 50.1 | 
[N-]=[N+]=NC1(Cc2ccccc2)C(=O)Nc2ccccc2C1=O (centres undefined) | > 200 | 105 | 
NC(=O)c1ncn(Cc2ccccc2)c1CNC(N)=S |  |  | inactive
COC(=O)C1(Cc2ccccc2)Cc2c(C)ccc(C)c2C1=O (centres undefined) | > 200 | > 200 | 
O=c1oc(-c2cccc(-c3nc4c(c(=O)o3)CCS4)c2)nc2c1CCS2 | > 200 |  | 
COC(=O)CN1CCSC1=NC#N |  |  | inactive
COc1cc2c(cc1O)C1Cc3cc(O)c(OC)cc3C(C2)N1C (centres undefined) | > 759 | 49 | 
Cc1cc(NS(=O)(=O)c2ccc(Nc3c4ccccc4nc4c(C(=O)NCCO)cccc34)cc2)no1 | > 200 | 12.6 | 
CCc1cccc(CC)c1NC(=O)C1=CNC(C)=C(C(=O)Nc2c(CC)cccc2CC)C1c1ccc(O)c(OC)c1 (centres undefined) | > 63.1 | 49 | 
CCOC(=O)N1CC(C)=C(C)CN1C(=O)Nc1ccc(Cl)c(Cl)c1 | > 200 | 81.3 | 
CC(C)(C)C(=O)ON1N=NC2C3CC(OCc4ccccc4)(OCc4ccccc4)C(O3)C21 (centres undefined) | > 15.8 | > 15.8 | 
O=C(/C=C/c1ccc(F)c(F)c1)OCCc1ccccc1 | > 200 | 38.9 | 
CCN(CC)C(=S)SSC(=S)N(CC)CC | > 200 | 44.7 | 
